Several values for one entry are separate records, joined by “and”; a condition that tells them apart may be missing. Equal entries are not always repeated.
Columns and labels:
free fatty acids (FFS) [1] = assay: influence on the free fatty acids (FFS) in starved (hyperlipacidaemic) animals, hunger lipolysis; assay type: in vivo, rats (Wistar); conditions: starved
Method: Investigations on a total of 260 Wistarrats were conducted with 7-[3-(N-methyl-N-2-hydroxyethyl)-amino-2-hydroxypropyl]-1,3-dimethylxanthine-3-methylpyrazole-5-carboxylate.
Examination of the influence of 7-[3-(N-methyl-N-2-hydroxy-
ethyl)-amino-2-hydroxypropyl]-1,3-dimethylxanthine-3-methyl-
pyrazole-5-carboxylate on the serum fatty acids (FFS) of
Male Rats, starve for 17 hours
Dose: 100 mg/kg body weight, oral by esophagus probe,
Blood removal: 1 hour after application
pyrazole-5-carboxylate on the free fatty acids (FFS) in
starved animals 1 hour after application
Comparative examinations of the influence of 7-[3-(N-methyl-
carboxylic acid on the free fatty acids (FFS) in starved
animals 1 hour after application
pyrazole-5-carboxylic acid on the free fatty acids (FFS)
in starved animals 6 hours after application

serum triglycerides (TG) = assay: influence on the serum triglycerides (TG) in normal animals; assay type: in vivo, Rats (Wistar); conditions: for TG: starve for 5 hours; for TG, mean (x): 1 hour
Method: Rats, starve for 5 hours
40 mg/kg body weight of active principle according to
the invention, oral by esophagus probe 1 hour before
12 mg/kg body weight of 3-methylpyrazole-5-carboxylic
acid, equim. dosage, 1 hour before removal of blood
Dose: 10 mg/kg body weight of active principle according to the
invention, oral by esophagus probe 1 hour before blood removal
Dose: 3 mg/kg body weight of 3-methylpyrazole-5-carboxylic acid,
equim. dosage, oral by esophagus probe 1 hour before

free fatty acids (FFS) [2] = assay: influence on the free fatty acids (FFS) after repeated application once daily for 4 days; assay type: in vivo, Rats male (Wistar); conditions: for free fatty acids (FFS): individual animals, 15 mg/kg
Method: Rats male, repeated application once daily for 4 days,
on the 4th day groups of 10 animals were killed at
intervals of 30 minutes, 1 hour and 2 hours after the
last application by ether narcosis and heart puncture.
10 controls were given esophagus probe, animals starved
for 17 hours before killing (cf. FIG. 4)
7-[3-(N-methyl-2-hydroxyethyl)-amino-2-
hydroxypropyl]-1,3-dimethylxanthine-3-
methylpyrazole-5-carboxylate 50 mg/kg peroral
3-methylpyrazole-5-carboxylic acid (3-MPC)
eq./kg 15 mg/kg peroral

[3] = starving rats; David L. Smith et al; cited from earlier work
[4] = system: free fatty acids and triglycerides in the serum; conditions: cited from earlier work
[5] = free acid, known per se; cited from earlier work

For Cc1cc(C(=O)O)[nH]n1 [3-methylpyrazole-5-carboxylic acid, reference compound], the FFS (free fatty acids (FFS) [1]; Table 5, individual animals, 1 hour after application, 15 mg/kg) was 0.41 μval/ml and 0.43 μval/ml and 0.59 μval/ml and 0.52 μval/ml and 0.67 μval/ml and 0.37 μval/ml and 0.40 μval/ml and 0.54 μval/ml and 0.44 μval/ml, the “FFS, mean” value (free fatty acids (FFS) [1]; Table 5, mean, n=10, 1 hour after application, 15 mg/kg, control 1.08, p<0.001) was 0.47 μval/ml and the FFS (free fatty acids (FFS) [1]; Table 6, individual animals, 6 hours after application, 15 mg/kg p.o., 15 mg/kg) was 0.51 μval/ml and 0.50 μval/ml and 0.67 μval/ml and 0.64 μval/ml and 0.56 μval/ml and 0.53 μval/ml and 0.61 μval/ml and 0.85 μval/ml and 0.44 μval/ml and 0.54 μval/ml and 0.58 μval/ml and 1.00 μval/ml and 0.47 μval/ml and 1.46 μval/ml and 1.10 μval/ml. The “FFS, mean (x)” value (free fatty acids (FFS) [1]; Table 6, mean, n=21, 6 hours after application, 15 mg/kg p.o., control 0.86, p<0.01) was 0.69 μval/ml, the TG (serum triglycerides (TG); Table 7, individual animals, 12 mg/kg (equim. dosage) 1 hour before removal of blood, 12 mg/kg) was 90.2 mg % and 87.3 mg % and 58.7 mg % and 107.4 mg % and 51.6 mg % and 55.8 mg % and 71.6 mg % and 60.1 mg % and 68.7 mg % and the “TG, mean (x)” value (serum triglycerides (TG); Table 7, mean, 12 mg/kg (equim. dosage), control x = 66.4) was 74.1 mg %. For the same compound, the TG (serum triglycerides (TG); Table 8, individual animals, 3 mg/kg (equim. dosage) oral 1 hour before blood removal, 3 mg/kg) was 137.4 mg % and 87.3 mg % and 70.2 mg % and 74.4 mg % and 50.1 mg % and 43.0 mg % and 57.2 mg % and 51.5 mg % and 32.9 mg % and 73.0 mg %, the “TG, mean (x)” value (serum triglycerides (TG); Table 8, mean, 3 mg/kg (equim. dosage) oral, control x = 86.3, p>0.05→Ko., p>0.05→xant.-carbox.) was 67.7 mg % and the “effect on serum triglyceride level of normal animals” value (serum triglycerides (TG); equimolecular doses of the free acid, result in words) was “relatively weak, i.e. insignificant effect”. The “free fatty acids (FFS)” value (free fatty acids (FFS) [2]; 15 mg/kg p.o. 4 × appl., 30' after last application) was 0.66 μval/ml plasma and 0.59 μval/ml plasma and 0.53 μval/ml plasma and 0.91 μval/ml plasma and 0.56 μval/ml plasma and 0.95 μval/ml plasma and 1.02 μval/ml plasma and 0.81 μval/ml plasma and 0.80 μval/ml plasma and 0.60 μval/ml plasma, the “free fatty acids (FFS)” value (free fatty acids (FFS) [2]; 15 mg/kg p.o. 4 × appl., 1 h after last application) was 0.75 μval/ml plasma and 0.73 μval/ml plasma and 0.95 μval/ml plasma and 0.96 μval/ml plasma and 1.03 μval/ml plasma and 1.16 μval/ml plasma and 1.08 μval/ml plasma and 0.84 μval/ml plasma and 1.24 μval/ml plasma and 0.92 μval/ml plasma and the “free fatty acids (FFS)” value (free fatty acids (FFS) [2]; 15 mg/kg p.o. 4 × appl., 2 h after last application) was 0.62 μval/ml plasma and 0.59 μval/ml plasma and 0.51 μval/ml plasma and 0.70 μval/ml plasma and 0.88 μval/ml plasma and 0.84 μval/ml plasma and 1.27 μval/ml plasma and 1.20 μval/ml plasma and 0.86 μval/ml plasma. For the same compound, the “free fatty acids (FFS), mean (x9)” value (free fatty acids (FFS) [2]; mean of 9, 15 mg/kg p.o. 4 × appl., 2 h after last application, control 1.27, p<0.001) was 0.83 μval/ml plasma, the “free fatty acids (FFS), mean (x10)” value (free fatty acids (FFS) [2]; 15 mg/kg p.o. 4 × appl., 30' after last application, control 1.27, p<0.001) was 0.74 μval/ml plasma and the “free fatty acids (FFS), mean (x10)” value (free fatty acids (FFS) [2]; 15 mg/kg p.o. 4 × appl., 1 h after last application, control 1.27, p<0.001) was 0.97 μval/ml plasma. The “weakening of effect on free fatty acid content by pretreatment” value (free fatty acids (FFS) [2]; repeated application, result in words) was “able to confirm the results of these tests”, the “hypoglycaemic activity relative to tolbutamide” value [3] was “two hundred times” and the tachyphylaxia ([4]; observed by the authors, limits its suitability for therapeutic application) was “tachyphylaxia”. For the same compound, the “effect of pretreatment on the free fatty acid content of the plasma” value ([4]; pretreatment 4 to 5 days, Gerritzen et al) was “weakens the effect on the free fatty acid content of the plasma”, the “level of free fatty acids and triglycerides in the serum” value ([4]; small doses, starving normal rats) was “reduces the level of free fatty acids and triglycerides in the serum” and the lipid-lowering activity [5] was “shows corresponding activity”.

— patent publication US3980646A, “3-Methylpyrazole-5-carboxylates and medicaments containing these compounds” (Wulfing; Johann A., priority 1974, dated 1976)
